# Counter-ions that a name gives are not always drawn.
# Target: T1, CCR-3 (Homo sapiens, UniProt P51677)
# T1 sequence (P51677 1-355): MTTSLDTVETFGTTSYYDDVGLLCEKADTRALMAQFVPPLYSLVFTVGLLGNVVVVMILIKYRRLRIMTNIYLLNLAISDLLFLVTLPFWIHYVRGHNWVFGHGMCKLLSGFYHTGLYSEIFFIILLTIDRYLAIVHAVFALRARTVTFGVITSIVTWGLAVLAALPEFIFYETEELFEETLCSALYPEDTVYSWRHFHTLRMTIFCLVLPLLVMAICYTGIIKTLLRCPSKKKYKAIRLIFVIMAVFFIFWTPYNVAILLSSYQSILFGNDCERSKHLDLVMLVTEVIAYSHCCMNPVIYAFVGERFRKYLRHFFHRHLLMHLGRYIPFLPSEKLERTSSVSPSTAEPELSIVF
# Experiment: Eotaxin-induced chemotaxis of CCR-3 transfectant cells (CCR3/U937)
# Format: cell-based
# Parameters: expressed in transfected cells; host or cells: U937
# Conditions: 10 µM test compound; eotaxin 1 x 10^-9 M; CCR3/U937 cells (Table 3a)
# Protocol: The inhibitory activity of the compounds against eotaxin-induced chemotaxis was determined by measuring the inhibition of migration of CCR-3 transfectant cells (CCR3/U937), using a minor modification of the method described by Ohashi, H. et al., Int Arch Allergy Immunol. […] The chemotaxis assay was performed in a 24-well culture plate. Human eotaxin suspended in assay medium was added to the wells at 1 x 10^-9 M along with test compounds at various concentrations. For a positive control, eotaxin was added to the wells without a test compound, and for a negative control, neither eotaxin nor a test compound was added to the wells. Chemotaxicell (Kurabo Co., Ltd.) having 5 micrometers pore size were inserted into each well and 100 micro liters of CCR-3 transfectant cells suspension were added to the top chamber. The plates were incubated at 37 °C for 1 hour. After incubation, migrated cells in lower wells were diluted and counted by particle size distribution analyzer (CDP-500, Sysmex Co., Ltd.).
row,Chemotaxis Assay 10 µM (inhibition %) [%],SMILES
1,100,CC(C)(c1ccccc1)N(CCCNC(=O)Nc1ccccc1Br)CCCC(=O)O [Compound 195]
2,86,O=C(NCCCN(CCc1ccc(Cl)cc1)CC1CCCCC1)Nc1ccccc1 [Compound 240]
3,100,CCN(CCCNC(=O)Nc1ccccc1)C1CCCc2ccccc21 (centres unmarked) [Compound 192]
4,100,C=CCN(CCCNC(=O)Nc1ccccc1)CCc1ccc(Cl)cc1 [Compound 221]
5,100,"COC(=O)CCCN(CCCNC(=O)Nc1ccc(Br)cc1)C1CCCc2ccccc21 (centres unmarked) [Compound 29, methyl 4-[[3-(4-bromophenylureido)propyl](1,2,3,4-tetrahydro-1-naphthyl)amino]butylate]"
6,75,COC(=O)CCCN(CCCNC(=O)Nc1ccc(Br)cc1)C1CCc2ccccc21 (centres unmarked) [Compound 176]
7,100,COC(=O)CN(CCCNC(=O)Nc1ccccc1)CCc1ccc(Cl)cc1 [Compound 245]
8,64,O=C(O)CCCN(CCCNC(=O)Nc1ccc(Br)cc1)Cc1ccc(C(F)(F)F)cc1 [Compound 71]
9,69,O=C(O)CN(CCCNC(=O)Nc1ccc(Br)cc1)C1CCCc2ccccc21 (centres unmarked) [Compound 186]
10,100,"COC(=O)CCCN(CCCNC(=O)Nc1ccc(Cl)c(Cl)c1)C1CCCc2ccccc21 (centres unmarked) [Compound 35, Methyl 4-[[3-(3,4-dichlorophenylureido)propyl](1,2,3,4-tetrahydro-1-naphthyl)amino]burylate]"
11,73,CCOC(=O)CCCCCN(CCCNC(=O)Nc1ccccc1)CCc1ccc(Cl)cc1 [Compound 242]
12,100,CCN(CCCNC(=O)Nc1ccccc1)CCc1ccccc1Cl [Compound 232]
13,100,COC(=O)CCCN(CCCNC(=O)Nc1ccccc1Br)C(C)(C)c1ccccc1 [Compound 194]
14,100,COC(=O)CCCN(CCCNC(=O)Nc1ccccc1)C1CCCc2ccccc21 (centres unmarked) [Compound 56]
15,100,CC(=O)OCCCCN(CCCNC(=O)Nc1ccc(Br)cc1)C1CCCc2ccccc21 (centres unmarked) [Compound 202]
16,100,CCC(c1ccccc1)N(CCCNC(=O)Nc1ccc(Br)cc1)CCCC(=O)O (centres unmarked) [Compound 271]
17,89,CCN(CCCNC(=O)Nc1ccccc1)C1CCc2ccccc21 (centres unmarked) [Compound 234]
18,99,CCN(CCCCNC(=O)Nc1ccccc1)CCc1ccc(Cl)cc1 [Compound 7]
19,100,COC(=O)CCCN(CCCNC(=O)Nc1ccc(F)cc1)C1CCCc2ccccc21 (centres unmarked) [Compound 187]

# Same assay, conditions: 10 µM test compound; eotaxin 1 x 10^-9 M; CCR3/U937 cells (Table 3c)
row,SMILES,Chemotaxis Assay 10 µM (inhibition %) [%]
1,CC[N+](CCCNC(=O)Nc1ccccc1)(CCc1ccc(Cl)cc1)CC(N)=O.[I-] (centres unmarked) [Compound 300],100
2,CCCC[N+](CC)(CCCNC(=O)Nc1ccc(Br)cc1)CCc1ccc(Cl)cc1.[I-] (centres unmarked) [Compound 294],100
3,CC[N+](CC)(CCCNC(=O)Nc1ccccc1)CCc1ccc(OC)cc1.[I-] [Compound 304],66
4,CC[N+](CC)(CCCNC(=O)Nc1ccccc1)Cc1ccccc1.[I-] [Compound 305],100

# The next lines start with the values.
row,Chemotaxis Assay 10 µM (inhibition %) [%],SMILES
1,100,CC[N+](CCCNC(=O)Nc1ccccc1)(CCc1ccc(Cl)cc1)Cc1cccc(C(=O)OC)c1.[I-] (centres unmarked) [compound 332]
2,92,CC[N+](CC)(CCCNC(=O)Nc1ccccc1)CCc1ccc(C)cc1.[I-] [Compound 307]
3,86,CC[N+](CCCNC(=O)Nc1ccc(Br)cc1)(CCCC(=O)OC)C(C)c1ccccc1.[I-] (centres unmarked) [compound 313]
4,100,CC[N+](CCCNC(=O)Nc1ccccc1)(CCc1ccc(Cl)cc1)Cc1cccc(Cl)c1.[I-] (centres unmarked) [compound 329]
5,100,CC[N+](CCCNC(=O)Nc1ccccc1)(CCc1ccc(Cl)cc1)Cc1cccc(Oc2ccccc2)c1.[I-] (centres unmarked) [compound 333]
6,100,CC[N+](CCCNC(=O)Nc1ccccc1)(CCc1ccc(Cl)cc1)Cc1ccc(OCc2ccccc2)cc1.[I-] (centres unmarked) [compound 334]
7,97,CC[N+](CCCNC(=O)Nc1ccc(Br)cc1)(CCCC(=O)OC)C(C)c1ccccc1.[I-] (centres unmarked) [compound 312]
8,97,CC[N+](CCCNC(=O)Nc1ccccc1)(CCc1ccc(Cl)cc1)Cc1ccc(C(C)(C)C)cc1.[I-] (centres unmarked) [compound 342]

# Same assay, conditions: U-937; 10 µM test compound; eotaxin 1 x 10^-9 M; CCR3/U937 cells (Table 3a)
row,inhibition at 10 µM [%],SMILES
1,100,"NC(=O)CCCN(CCCNC(=O)Nc1ccc(Br)cc1)C1CCCc2ccccc21 (centres unmarked) [Compound 193, 4-[[3-(4-Bromophenylureido)propyl](1,2,3,4-tetrahydro-1-naphthyl)amino]butanamide]"
2,89,"CC(c1ccc(Cl)cc1)N(CCCNC(=O)Nc1ccc(Br)cc1)CCCC(=O)O (centres unmarked) [Compound 272, 4-[[3-(4-Bromophenylureido)propyl][1-(4-chlorophenyl)ethyl]amino]butanoic acid]"
3,100,"O=C(O)CCCN(CCCNC(=O)Nc1ccc(I)cc1)C1CCCc2ccccc21 (centres unmarked) [Compound 229, 4-[[3-(4-Iodophenylureido)propyl](1,2,3,4-tetrahydro-1-naphthyl)amino]butanoic acid]"
4,88,O=C(NCCCN(CCc1ccccc1)CCc1ccc(Cl)cc1)Nc1ccccc1 [Compound 25]
5,69,"O=C(NCCCN(CCc1ccc(Cl)cc1)CCc1ccc(Cl)cc1)Nc1ccccc1 [Compound 238, [3-(Phenylureido)propyl]bis[2-(4-chlorophenyl)ethyl]amine]"
6,95,"C[C@@H](c1ccc(Br)cc1)N(CCCNC(=O)Nc1ccc(Br)cc1)CCCC(=O)O [Compound 293, 4-[[3-(4-Bromophenylureido)propyl][(1S)-1-(4-bromophenyl)ethyl]amino]butanoic acid]"
7,78,COC(=O)CCCN(CCCNC(=O)Nc1ccc(Br)cc1)Cc1cccs1 [Compound 39]

# Same assay, conditions: U-937; 10 µM test compound; eotaxin 1 x 10^-9 M; CCR3/U937 cells (Table 3c)
row,inhibition at 10 µM [%],SMILES
1,100,"CC[N+](CC)(CCCNC(=O)Nc1ccccc1)CCc1cccc(Cl)c1 [Compound 309, [3-(Phenylureido)propyl][2-(3-chlorophenyl)ethyl]diethylammonium iodide]"
2,82,"CC[N+](CCCNC(=O)Nc1ccc(Br)cc1)(CCCC(=O)O)[C@H](C)c1ccccc1 (stereo partly drawn) [Compound 316, [3-(4-Bromophenylureido)propyl][(1R)-1-phenylethyl][3-(carboxy)propyl]ethylammonium trifluoroacetate]"
3,67,"Cc1ccc(C[N+](CCCNC(=O)Nc2ccccc2)(CCc2ccc(Cl)cc2)Cc2ccc(C)cc2)cc1 [Compound 296, [3-(Phenylureido)propyl][2-(4-chlorophenyl)ethyl]bis(4-methylbenzyl)ammonium iodide]"

# Same assay, conditions: test compound 0.1 µg/ml; eotaxin 1 x 10^-9 M; CCR3/U937 transfectants; 37 °C, 1 hour
row,Chemotaxis Assay 0.1 µg/ml (inhibition %) [%],SMILES
1,77,CC[N+](CCF)(CCCNC(=O)Nc1ccc(C#N)cc1)CCc1cccc(Cl)c1.[I-] (centres unmarked) [compound 403]
2,74,CC[N+](CCCNC(=O)Nc1ccccc1)(CCc1ccc(Cl)c(Cl)c1)CCC(C)C.[I-] (centres unmarked) [compound 408]
3,59,CC[N+](CCF)(CCCNC(=O)Nc1ccc(OC)cc1)CCc1ccc(Cl)cc1Cl.[I-] (centres unmarked) [compound 452]
4,99,CC[N+](CCCNC(=O)Nc1ccccc1)(CCc1ccc(Cl)c(Cl)c1)CC1CCC1.[I-] (centres unmarked) [compound 420]
5,64,CCC(CC)C[N+](CC)(CCCNC(=O)Nc1ccccc1)CCc1ccc(Cl)cc1Cl.[I-] (centres unmarked) [compound 429]
6,42,CC[N+](CC#N)(CCCNC(=O)Nc1ccccc1)CCc1cccc(Cl)c1.[I-] (centres unmarked) [compound 411]
7,96,CCC(CC)C[N+](CC)(CCCNC(=O)Nc1ccc(OC)cc1)CCc1ccc(Cl)c(Cl)c1.[I-] (centres unmarked) [compound 449]
8,42,C=C(C)C[N+](CC)(CCCNC(=O)Nc1ccccc1)CCc1ccc(Cl)cc1.[I-] (centres unmarked) [compound 422]
9,46,CC[N+](CCCNC(=O)Nc1ccc(Br)cc1)(CCc1ccc(Cl)c(Cl)c1)CC1CCC1.[I-] (centres unmarked) [compound 377]
10,51,C=C(C)C[N+](CC)(CCCNC(=O)Nc1ccc(C(F)(F)F)cc1)CCc1cccc(Cl)c1.[I-] (centres unmarked) [compound 390]
11,96,CCC(CC)C[N+](CC)(CCCNC(=O)Nc1ccccc1)CCc1cccc(F)c1.[I-] (centres unmarked) [compound 431]
12,47,CC[N+](CCF)(CCCNC(=O)Nc1ccc(C#N)cc1)CCc1ccc(Cl)cc1Cl.[I-] (centres unmarked) [compound 404]
